Measured values published in patent US20220357341A1, “COMPOSITIONS AND METHODS FOR AN IL-17 TARGET ENGAGEMENT ASSAY WITH SMALL MOLECULE MODULATORS” (Janssen Pharmaceutica NV, priority 2019, published 2022).

Legend:
IL-17 = target: T1, IL-17 (Homo sapiens, UniProt Q16552); experiment: Free IL-17 ELISA: capture antibody of DuoSet ELISA kit DY317 paired with mAb4538 as detection agent, IL-17 titration with 10 μM SM modulator; type: binding; details: capture antibody of DuoSet ELISA kit DY317, detection agent mAb4538 500 ng/ml, FIGS. 2A-2F
T1 construct: serial dilutions of recombinant IL-17 were prepared in diluent
Method: Two-fold and 8-point serial dilutions of recombinant IL-17 were prepared in diluent starting from 1 ng/ml, in duplicate. For testing differentiating property on SM modulators, IL-17 calibration samples were prepared in the presence of 10 μM SM modulators or vehicle control containing 0.1% DMSO. IL-17 samples were incubated for 1 hour at 37° C.
(§1) High binding 96-well plates were coated with 100 μL/well of 4 μg/ml capture antibody in PBS overnight at room temperature. Coated plates were washed 6×400 μL/well on plate washer (Zoom HT Microplate Washer) and blocked with 300 μL/well blocker (1% BSA in PBS) at room temperature for 2.5 hours followed by 6×400 μL/well on plate washer.
Samples were prepared by incubating titrated IL-17 with SM modulators at final concentration of 10 μM. IL-17 levels were measured in ELISA assay by adding 95 μL/well samples to the capture antibody coated plates. Plates were kept at room temperature for 30 minutes and then 5 μL/well of detecting agent were added to a final of 500 ng/mL, kept at room temperature for another 30 minutes, followed by washing 6×400 μL/well on plate washer. Development of color for measurement was performed by adding streptavidin conjugated horseradish peroxidase at 100 μL/well and incubated for 20 minutes at room temperature in the dark, followed by 6×400 μL/well on plate washer, and then addition of 100 μL/well pf substrate solution, incubated for 20 minutes at room temperature in the dark. Reaction was then stopped by addition of 50 μL/well of stop solution and plates were measured in plate reader at 450-540 nm.
(§2) Optical density (OD) readout from plate reader (Molecular Devices Spectra Max 340fPC) were analyzed with Softmax Pro6.3 and GraphPad Prism, and plotted as dose response curve of OD values vs IL-17 concentrations.

[1] = target: T2, human IL-17 (interleukin 17A), recombinant, free (not bound to a small molecule modulator) (human, UniProt Q16552 24-155, limits assumed); experiment: sandwich ELISA: plate coated with capture antibody of DuoSet DY317, IL-17A titrated in 0.1% DMSO vehicle, mAb4538 at 500 ng/mL as detection agent, streptavidin-HRP readout
T2 construct: Recombinant IL-17 used as calibrator in the sandwich ELISAs; also called IL-17A; free IL-17
Method: as §1
Samples were prepared by incubating titrated IL-17 with SM modulators at final concentration of 10 μM. IL-17 levels were measured in ELISA assay by adding 95 μL/well samples to the capture antibody coated plates. Plates were kept at room temperature for 30 minutes and then 5 μL/well of detecting agent were added to a final of 500 ng/mL, kept at room temperature for another 30 minutes, followed by washing 6×400 μL/well on plate washer. […] Reaction was then stopped by addition of 50 μL/well of stop solution and plates were measured in plate reader at 450-540 nm.
as §2

T1 sequence (Q16552 24-155): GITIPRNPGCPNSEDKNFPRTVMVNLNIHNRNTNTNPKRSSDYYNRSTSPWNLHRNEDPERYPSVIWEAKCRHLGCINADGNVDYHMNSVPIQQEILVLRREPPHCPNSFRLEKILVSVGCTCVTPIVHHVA
T2 sequence (Q16552 24-155 limits assumed): as the sequence (Q16552 24-155) above

Molecule: NC(=O)CC[C@H]1NC(=O)[C@@H](Cc2ccc(NC(=O)[C@H](Cc3ccccc3Cl)NC(=O)Cc3ccc(F)cc3)cc2)NC(=O)CC2(CCCC2)CC(=O)NCCCCCNC1=O [Compound #2]
- detection of free IL-17 versus SM modulator-bound IL-17 (OD vs IL-17 concentration) (IL-17): detection of free IL-17, but not modulator-bound IL-17

Molecule: C[C@H]1NC(=O)[C@@H](Cc2ccc(NC(=O)[C@H](Cc3ccccc3Cl)NC(=O)Cc3ccc(F)cc3)cc2)NC(=O)CC2(CCCC2)CC(=O)N[C@H](C(=O)O)CCCCNC1=O [Compound #3]
- detection of free IL-17 versus SM modulator-bound IL-17 (OD vs IL-17 concentration) (IL-17): detection of free IL-17, but not modulator-bound IL-17

Molecule: C[C@H]1NC(=O)[C@@H](Cc2ccc(NC(=O)[C@H](Cc3ccccc3Cl)NC(=O)Cc3ccc(CO)cc3)cc2)NC(=O)CC2(CCCC2)CC(=O)NCCCCCNC1=O [Compound #4]
- detection of free IL-17 versus SM modulator-bound IL-17 (OD vs IL-17 concentration) (IL-17): detection of free IL-17, but not modulator-bound IL-17

Molecule: O=C1CNC(=O)[C@@H](Cc2ccc(NC(=O)[C@H](Cc3ccccc3Cl)NC(=O)Cc3ccccc3)cc2)NC(=O)CC2(CCCC2)CC(=O)NCCCCCN1 [Compound #5]
- detection of free IL-17 versus SM modulator-bound IL-17 (OD vs IL-17 concentration) (IL-17): detection of free IL-17, but not modulator-bound IL-17

Molecule: O=C(CC1(CC(=O)N2CCCC2)CCCC1)NCCc1ccc(NC(=O)[C@H](Cc2ccccc2Cl)NC(=O)C(F)(F)c2ccccc2)cc1 [Compound #6]
- detection of free IL-17 versus SM modulator-bound IL-17 (OD vs IL-17 concentration) (IL-17): detection of free IL-17, but not modulator-bound IL-17

B1: mAb4538 (Janssen Biotech, Inc.) (antibody, human IgG1, lambda, V domains shown)
VH: QVQLQQSGPGLVKPSQTLSLTCAISGDSVSSSSAAWGWIRQSPSRGLEWLGRISYRSKWYNDYAVSVKSRITINPDTSKNQFSLQLNSVTPEDTAVYYCAREVDSMYYSYFDIWGQGTLVTVSS
VL: EIVLTQSPATLSLSPGERATLSCRASQNVWAFYLAWYQQKPGQAPRLLIYGASNRATGIPARFSGSGSGTDFTLTISSLEPEDFAVYYCQQYRSTLSLTFGQGTKVEIKG
notes: also called human mAb4538 antibody
- binding result [1]: binds
